US20090247520A1, “INHIBITORS OF ANTIGEN RECEPTOR-INDUCED NF-kappa B ACTIVATION” (The Burnham Institute for Medical Research, priority 2008, published 2009)
pIC50: −log10 of the molar value. Like-named read-outs stand apart in the source and are kept apart here.

Tests used:
[1] = test system: 353 protein kinases; assay: KINOMEscan kinome screen, panel of 353 protein kinases; assay type: binding, human; conditions: 10 μM, of 353 protein kinases surveyed
From the text: CID-2858522 is not a potent protein kinase inhibitor. Protein kinases play critical roles in NF-κB activation. PKCs are proximal kinases in the NF-κB pathways activated by PMA/Ionomycin and by T- and B-cell antigen receptors, while the IKKs are distal kinases operating in the terminal segments of these and other NF-κB activation pathways. We therefore tested whether CID-2858522 inhibits members of these kinase families by in vitro kinase assays. For these experiments, we tested PKC-beta and PKC-theta (the PKC family members implicated in TCR/BCR signaling), and IKK-beta (a component of the IKK complex) (FIG. 6). […] In addition to assessing these three kinases by conventional in vitro kinase assays, a kinome screen was performed using a high throughput screening method, KINOMEscan™, which is an active-site dependent competition binding assay in which human kinases of interest are fused to a proprietary tag (Ambit). The amount of kinase bound to an immobilized, active-site directed ligand is measured in the presence and absence of the test compound. […] Thus, CID-2858522 inhibits none of the protein kinases previously implicated in regulating NF-κB.
In Vitro Kinase Assays. PKC-beta, PKC-theta and IKK-beta in vitro kinase assays were performed using the HTScan Kinase Assay Kit (Cell Signaling, Danvers, Mass.) according to manufacturer's protocols. […]

[2] = test system: p65-DNA binding activity induced by TNF; assay: NF-κB p65 DNA-binding activity induced by TNF; assay type: cell-based; conditions: data not shown
Experimental: NF-κB DNA-binding activity assays. Nuclear extracts were prepared from 10 cm^2 plates of confluent cells using a kit (Active Motif, Carsbad, Calif.). The total protein content of nuclear fractions was quantified by the Bradford method, followed by storage at −80° C. NF-κB DNA-binding activity was measured in nuclear extracts (10 μg protein) using an immunoassay method (TransAM Kit [Active Motif]) employing 96 well plates coated with double-strand oligodeoxynucleotides containing NF-κB consensus binding site (5′-[…]-3′) and anti-p65 antibody, which was detected by secondary horseradish peroxidase (HRP)-conjugated antibody, using a calorimetric substrate with absorbance read at 450 nm within 5 minutes using a spectrophotometer, SpectraMax M5 (Molecular Devices, Sunnyvale, Calif.).

[3] = target: T1, purified luciferase (Photinus pyralis, UniProt P08659); assay: Luciferase inhibition counter screen, in vitro enzymatic assay; assay type: biochemical; conditions: not shown
T1 construct: purchased Perkin Elmer
T1 sequence (P08659 whole entry, species assumed): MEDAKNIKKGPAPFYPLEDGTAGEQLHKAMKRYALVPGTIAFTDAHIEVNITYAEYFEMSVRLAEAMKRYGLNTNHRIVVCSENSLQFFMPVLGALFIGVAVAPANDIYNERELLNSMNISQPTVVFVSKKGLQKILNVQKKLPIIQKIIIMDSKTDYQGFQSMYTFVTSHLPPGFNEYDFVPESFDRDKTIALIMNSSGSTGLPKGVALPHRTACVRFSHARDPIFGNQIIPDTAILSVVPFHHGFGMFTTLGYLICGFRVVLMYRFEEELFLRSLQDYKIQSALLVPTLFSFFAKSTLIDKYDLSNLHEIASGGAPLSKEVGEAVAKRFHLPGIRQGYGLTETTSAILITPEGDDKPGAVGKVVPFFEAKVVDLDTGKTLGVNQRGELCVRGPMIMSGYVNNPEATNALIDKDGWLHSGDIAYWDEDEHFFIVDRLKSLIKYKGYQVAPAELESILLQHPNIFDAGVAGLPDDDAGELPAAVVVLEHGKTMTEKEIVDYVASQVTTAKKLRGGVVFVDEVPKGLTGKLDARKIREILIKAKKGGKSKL
Experimental: Counter Screening and Secondary Assays. To counter-screen for inhibitors of the TNF pathway, HEK293-NFκB-Luc cells were seeded at 10^5 cells per well in 90 μL medium in white 96-well plates (Greiner Bio-One) and cultured overnight, before adding compounds (5 μL in medium) to cells. After 2 h incubation, 5 μL TNF (200 ng/mL) (R&D Systems) was added (final concentration 10 ng/mL) and cells were incubated for 16 h. Luciferase activity was measured using Britelite kit (Perkin Elmer). To counter-screen for inhibitors of NF-κB induced by TLR4, CD40, NOD1, NOD2, cIAP2/MALT, or XIAP/TAB, the 293-NF-κB-luc cells cultured in 96 well plates as above were pretreated with compounds for 2 h and then transfected using Lipofectamine 2000 with various plasmids including pcDNA3 (“empty vector” control) or plasmids encoding CD4-TLR4, CD40, NOD1, NOD2, cIAP2/MALT, XIAP/TAB, using 0.2 μL of transfection reagent containing 100 ng DNA per well. Cells were cultured in medium containing CID-2858522 or other compounds and luciferase activity was measured 48 h later. […] Reactions were then initiated by addition of 50 μL 160 nM ATP (Sigma) in PBS and luciferase activity was measured 2 h later using a luminometer (LJL Biosystems, Sunnyvale, Calif.).

[4] = test system: PMA/Ionomycin-induced NF-κB reporter gene activity; assay: NF-κB luciferase reporter gene assay, PMA/Ionomycin-stimulated HEK293-NF-κB-luc cells; assay type: cell-based
From the text: The strategy for compound library screening entailed using phorbol ester (phorbol myristic acetate [PMA]) and Ca^2+-ionophore Ionomycin to achieve PKC activation, mimicking the initiating events in the antigen receptor pathway. For convenience, we used HEK293 epithelial cells, in which it has previously been shown by siRNA-mediated gene silencing and transfection of dominant-negative mutants that PMA/Ionomycin-induced NF-κB activation is dependent on CARMA1, Bcl-10, and MALT. HEK293 cells were stably transfected with a luciferase reporter gene driven by a NF-κB responsive promoter, and the responsiveness of this integrated promoter to various NF-κB inducing stimuli was confirmed, including PMA/Ionomycin and TNF. Using these cells, 96- and 384-well plate-based high throughput screening (HTS) assays were established, with good assay performance characteristics (Z′>0.5) (PubChem AID=1384). We initially screened 53,280 chemical compounds at an average concentration of 5 μM, of which 519 primary hits were obtained (based on cut-off of 50% inhibition). Of these, 248 confirmed upon repeat testing (FIG. 1).
Cell engineering. HEK293 cells were co-transfected with pUC13-4xNFκB-Luc and p-TK-puromycin-resistance plasmids. Stable clones were selected by culture in Dulbecco's Modified Eagle's Media (InVitrogen) supplemented with 10% heat-inactivated fetal bovine serum (FBS) (Hyclone), 1% v/v penicillin-streptomycin (InVitrogen) containing 1 μg/mL puromycin. Individual clones were tested for responsiveness to PMA/Ionomycin- and to TNF-induced NF-κB reporter gene activity, and a clone was selected for HTS.
HTS. NF-κB-luciferase expressing HEK293 cells were seeded at […] per well in white 96 well plates (Greiner Bio-One) in 90 μl of DMEM and incubated overnight. 10 μl of compound-containing solution was added to each well (final 1.5 μg/mL in 1% DMSO) using a liquid handler (Biomek™ FX; Beckman Coulter). After 2 h incubation, cells were stimulated using 11 μl of a PMA (final 100 ng/mL; Calbiochem) and ionomycin (final 50 ng/mL; Calbiochem) in DMEM. Cell plates were incubated for 16 h before media was removed and 40 μl of 0.5× passive lysis buffer (Promega Corp.) was added to cell plates. Plates were allowed to stand at room temperature for at least 15 minutes before adding 40 μl of 0.125× luciferin substrate (Promega Corp.) to each well. Plates were analyzed within 30 seconds with a Criterion Analyst™ using the luminescence method (0.1 second read/well).
Several compounds synthesized by the methods described herein were tested for their efficacy at inhibiting Nf-κB activation.

[5] = test system: TNF-α-induced IKK-β phosphorylation; assay: TNF-α-induced IKK-β phosphorylation in HEK293 cells; assay type: cell-based; conditions: 4 μM

Cc1cc2nc(NCCCO)n(CC(=O)c3cc(C(C)(C)C)c(O)c(C(C)(C)C)c3)c2cc1C [Compound 1, 2-(2-(3-Hydroxypropylamino)-5,6-dimethyl-1H-benzo[d]imidazol-1-yl)-1-(3,5-di-tert-butyl-4-hydroxyphenyl)ethanone]
number of protein kinases suppressed by >50% [1]: 3 | block of p65-DNA binding activity induced by TNF [2]: did not block | inhibition of luciferase activity [3]: did not inhibit | pIC50 ([4]; Homo sapiens, HEK293 cell line, PMA/Ionomycin, read-out: IC50, suppression of NF-κB reporter gene activity): ~7.15 | pIC50 ([4]; Homo sapiens, PMA/Ionomycin / PKC activators, HEK293, read-out: IC50, NF-κB reporter gene assay (cellular potency)): > 7.00 | concentration at which maximum inhibition of NF-κB reporter is achieved ([4]; PMA/Ionomycin, HEK293): 0.25 to 0.5 µM | pIC50 ([4]; Table II, read-out: IC50, Inhibition of antigen receptor-mediated Nf-κB): 7.15 | inhibition of TNF-α-induced IKK-β phosphorylation [5]: failed to inhibit
